Key:
[1] = Relaxivity in rat liver cytosol; format: biochemical; settings: 20 MHz, 37° C.; Gd(III) complexes in rat liver cytosol
Method: The relaxivity of the Gd(III) complexes in cytosol was measured at 37 ° C. using a Bruker 20MHz Minispec equipped with a variable temperature probe. The inversion-recovery pulse sequence with 10 data points was used for T1 measurements. 1/T1 relaxation rates of solutions with varying concentrations of the chelates (0.01-0.5 mM) were determined. The limiting slope of the 1/T1 vs concentration plot at low concentrations of the chelates in units of s^-1 mM^-1 was taken as the relaxivity (R1) of the chelate in cytosol.
Higher relaxivity values imply higher binding affinity to cytosolic proteins and/or greater relaxivity when bound.

[2] = Rat liver uptake of 153Gd-labeled chelates; format: in vivo, Sprague Dawley rat; settings: 50 μmol/kg tail vein
Method: Un-anesthetized adult male Sprague Dawley rats (200-300 g) were injected in the tail vein with 50 μmol/kg of gadolinium chelate labeled with ^153 Gd. Rats (approx. 3 per time period) were euthanized by cervical dislocation (while anesthetized by CO2) at 1, 5 and 30 min. post-injection. The liver was analyzed for ^153 Gd concentration using a gamma counter. The percentage of the injected dose (% ID) in the liver was determined for each time point and the integrated area under the mean liver % ID time curve (AUC) was calculated.

[3] = 1/T1 relaxation rates of excised rat liver; format: in vivo, Sprague Dawley rat; settings: 50 μmol/kg tail vein, 20 MHz, 37° C.
Method: Rats (approx. 3 per time period) were euthanized by cervical dislocation (while anesthetized by CO2) at 1, 5 and 30 min. post-injection. […] The percentage of the injected dose (% ID) in the liver was determined for each time point and the integrated area under the mean liver % ID time curve (AUC) was calculated.
For the 5 min. time period, the 1/T1 proton relaxation rate of the excised liver was measured at 20MHz and 37° C. as described above. Higher 1/T1 values are associated with greater MRI signal intensity on T1 -weighted images and are due to greater liver uptake of the agent and/or greater relaxivity in the microenvironments of the liver.

[4] = in vivo
Method: Anesthetized (pentobarbital, 35 mg/kg, ip.) adult rabbits (2.5-4 kg) were administered 50 μmol/kg of a ^153 Gd-labeled chelate (approximately30 μCi/kg) via a cannulated marginal ear vein. Rabbits (1 per compound) were positioned supine under a gamma camera set with a photo peak energy of 100 keV +/- 20% and equipped with a low energy parallel hole collimator. Immediately after chelate administration, dynamic planar whole body scintigraphy was performed every five minutes for at least one hour. Images were acquired in a 64×64 matrix, and region of interest (ROI) analysis was performed using the Image 1.52 software package (National Institutes of Health). Percent injected does (% ID) in the liver at 5 min. intervals was calculated by dividing the counts in the liver ROI by the total counts in the body.

[5] = Biliary excretion in monkeys; settings: monkey, n = 2, 50 μmol/kg iv bolus
Method: Two adult male cynomolgus monkeys used for scintigraphic imaging were injected on different days with iv bolus of 50 μmol/kg of the chelates labeled with ^153 Gd (approximately 40 μCi/kg). Following completion of the imaging study, the animals were placed in metabolic cages and their total urine void and excreted feces were measured using a gamma counter at 24 and 48 hr post compound administration.

[6] = Liver and bile specificity relative to structurally similar contrast agents (summary statement); format: in vivo; settings: relative to structurally similar contrast agents previously disclosed
Excerpt: Thus, this invention provides a method for tissue-specific contrast enhancement of MR images of mammalian organs and tissues. In particular, the method allows for contrast enhancement of MR images of the hepatobiliary system. […] MS-264 can also be used for tissue-specific imaging of tumors and the blood pool.

| Molecule | R1 in liver cytosol (relaxivity) [1] [s⁻¹ mM⁻¹] | Area under the % inj. dose in rat liver vs time curve (AUC) from 0 to 30 min [2] | 1/T1 of excised rat liver 5 min. post-inj. [3] [s⁻¹] | Area under the % inj. dose in rabbit liver vs time curve (AUC) from 0 to 30 min [4] | % of recovered activity in feces (biliary excretion) of monkeys over 48 hr [5] [%] | liver and bile specificity [6] |
| --- | --- | --- | --- | --- | --- | --- |
| Cc1ccc(CC(CN(CCN(CC(=O)O)CC(=O)O)CC(=O)O)N(CC(=O)O)CC(=O)O)c(C)c1 (centres unmarked) [1-(2,4-di-Me-benzyl)] | 15.3 | 404 | 10.2 ± 0.6 | – | – | – |
| O=C(O)CN(CCN(CC(=O)O)CC(Cc1ccccc1)N(CC(=O)O)CC(=O)O)CC(=O)O (centres unmarked) [1-(benzyl)] | 11.7 | 213 | – | – | – | – |
| CCOc1ccc(C[C@@H](CN(CCN(CC(=O)O)CC(=O)O)CC(=O)O)N(CC(=O)O)CC(=O)O)cc1 [1-(p-ethoxybenzyl)] | 14.4 | 408 | 10.1 ± 1.5 | 480 | 35 ± 3 | – |
| CCc1ccc(CC(CN(CCN(CC(=O)O)CC(=O)O)CC(=O)O)N(CC(=O)O)CC(=O)O)cc1 (centres unmarked) [1-(p-ethylbenzyl)] | 16.4 | 469 | 12.3 ± 0.9 | 553 | 48 ± 10 | – |
| CC(C)c1ccc(CC(CN(CCN(CC(=O)O)CC(=O)O)CC(=O)O)N(CC(=O)O)CC(=O)O)cc1 (centres unmarked) [1-(p-isopropylbenzyl)] | 18.7 | 400 | 10.9 ± 1.2 | 910 | – | – |
| O=C(O)CN(CCN(CC(=O)O)CC(CCc1ccccc1)N(CC(=O)O)CC(=O)O)CC(=O)O (centres unmarked) [1-(phenylethyl)] | 13.6 | – | – | – | – | – |
| O=C(O)CN(CCN(CC(=O)O)CC(=O)O)CCN(CC(=O)O)C(COCc1ccccc1)C(=O)O (centres unmarked) [BOPTA] | 11.3 | – | – | – | – | – |
| diethylenetriamine pentaacetic acid [DTPA] | 7.1 | 35 | 4.64 ± 0.16 | – | – | – |
| gadolinium(III)-1-(p-n-butylbenzyl)diethylenetriamine pentaacetate dimeglumine salt [MS-264] | 23.8 | 491 | 14.6 ± 0.2 | 1120 | – | surprisingly superior liver and bile specificity |

From patent publication US5582814A, “1-(p-n-butylbenzyl) DTPA for magnetic resonance imaging” (Metasyn, Inc., priority 1994, dated 1996)
